# Reference: US10414721B1, “Inhibitor of endocannabinoid cellular reuptake” (University of Bern, priority 2018, dated 2019)
# Where two headings read alike, the source gives them in different places.
# Legend:
# [1] = test system: BALB/c mice; test: Tetrad test after i.p. administration; assay type: in vivo, mouse
# Procedure: WOBE437 was initially assessed in a battery of four individual tests typically associated with CB1 receptor activation in mice (nociception, locomotion, body temperature and cataleptic behavior), collectively referred to as the “tetrad”. Dose-response experiments identified 10 mg/kg as the lowest dose to elicit a moderate but complete tetrad in BALB/c mice upon intraperitoneal (i.p.) administration (FIGS. 3A-D). […] To assess whether the WOBE437-induced effects were CB1 receptor-mediated, mice were pre-treated with the selective antagonist/inverse agonist rimonabant (SR1). […] These experiments provided a proof-of-concept for the mechanism of action of WOBE437 as a novel “indirect CB1 receptor agonist”. In subsequent studies, the effects of WOBE437 in pain, inflammatory and anxiety models were investigated. […] Both effects were reversed by SR1.
# WOBE437 and RX-055 were tested in independent laboratories, in different mouse strains and in multiple (behavioral) models for cannabimimetic, analgesic, anti-inflammatory and anxiolytic-effects in wild-type and phenotypical CB1-KO mice as described in Chicca 2017.
# [2] = Oral bioavailability and tissue distribution; assay type: in vivo, mouse; settings: for Cmax: read-out: apparent Cmax in plasma; for concentration at 20 min: oral, read-out: plasma level
# Procedure: Male C57BL6/J or male BALB/c mice were orally administered by gavage with 10, 25, 50 or 100 mg/kg of WOBE437 (100 μL; olive oil and ethanol 8:2) using a metal feeding needle (20G, Kent Scientific, USA). The mice were sacrificed by decapitation after gavage administration. Brain, blood, liver, kidney and spleen were collected for the LC-MS/MS analyses. All tissues were briefly washed with ice cold PBS and immediately snap-frozen and stored at −80° C. Whole brain samples were dissected between the hemispheres. Blood samples were immediately centrifuged to obtain plasma, which was stored at −80° C.
# Samples extractions and LC-MS/MS measurements were performed as previously described (Chicca et al., 2017). Briefly, tissues were weighted and transferred in to extraction tubes containing three steel beads and 0.1 M formic acid. Tissues were homogenized and rapidly transferred to glass tubes containing 1.5 mL of ethyl acetate:hexane (9:1) 0.1% formic acid and internal standards (ISs). Samples were centrifuged and the organic phase was recovered. After evaporation, the extracts were reconstituted in 200 μL of ACN:ddH2O (8:2). 10 μL of the solution were injected in the LC-MS/MS system using the same LC and ionization protocols as described (Chicca et al., 2017).
# [3] = Microsomal clearance, human liver microsomes; assay type: in vitro ADME
# Procedure: Human or mice microsome clearance experiment were carried out as according to a previously describe protocol. Briefly, microsome preparation (0.5 mg/mL) plus cofactor NADPH solution was incubated with 1 μM of WOBE437 in 96-well plates at 37° C. After 1, 3, 6, 9, 15, 25, 35 and 45 min, 40 μL of the preparation was transferred and quenched with 3:1 (v/v) acetonitrile containing internal standards. Samples were then cooled and centrifuged before analysis by LC-MS/MS. Log peak area ratios (test compound peak area/internal standard peak area) are plotted against incubation time using a linear fit. The calculated slope is used to determine the intrinsic clearance. Data are obtained from single experiments measured with multiple time-points.
# [4] = test system: BALB/c mice; test: Complete Freund's adjuvant induced monoarthritis; assay type: in vivo, mouse
# Procedure: BALB/c mice were anesthetized with xylazine/ketamine (5 and 10 mg/kg, respectively) and subsequently monoarthritis was induced by intra-articular injection of complete Freund's adjuvant (CFA, 40 μL; Sigma-Aldrich, St. Louis, USA) into the right knee joint. The inflammation was allowed to develop for 14 days prior to pharmacological treatments starting at day 15 for 1 or 3 days, respectively. Mechanical sensitivity (allodynia) and knee diameter (edema) were evaluated 1 h post treatment in the ipsilateral and contralateral knees. Articular sensitivity was evaluated using a digital algometer (Bioseb, USA). […] A cut-off force of 300 g was considered to avoid damage in the tissue. The measurements were done in triplicates and the average was considered for the statistical analysis. To evaluate the degree of inflammation, knee diameter was measured in both extremities using a digital micrometer (Mitutoyo, USA). WOBE437 was administered at doses of 2.5, 5 or 10 mg/kg, either as single dose or for 3 days treatment. To evaluate the involvement of CB1 and CB2 receptors, TRPV1 and PPARγ, rimonabant (5 mg/kg, CB1 receptor antagonist/inverse agonist), SR144528 (3 mg/kg, CB2 receptor antagonist/inverse agonist; Cayman Chemical, USA), capsazepine (5 mg/kg, TRPV1 antagonist; Tocris Bioscience, UK) and GW9662 (3 mg/kg, PPARγ antagonist; Tocris Bioscience, UK) were injected 30 min before WOBE437 administration. Indomethacin (5 mg/kg; Sigma-Aldrich, USA) was used as a reference drug (positive control). For all the compounds, dimethylsulfoxide (DMSO) was used as vehicle (20 μL, i.p.).
# [5] = target: T1, MAGL (Mus musculus, UniProt O35678); test: MAGL activity (ABPP and radioactivity-based hydrolytic assays); assay type: biochemical; settings: ABPP in mouse brain homogenate and hydrolytic assays
# T1 construct: membrane preparations obtained from mouse brains; from tissue; host or cells: mouse brain membranes
# T1 sequence (O35678 whole entry): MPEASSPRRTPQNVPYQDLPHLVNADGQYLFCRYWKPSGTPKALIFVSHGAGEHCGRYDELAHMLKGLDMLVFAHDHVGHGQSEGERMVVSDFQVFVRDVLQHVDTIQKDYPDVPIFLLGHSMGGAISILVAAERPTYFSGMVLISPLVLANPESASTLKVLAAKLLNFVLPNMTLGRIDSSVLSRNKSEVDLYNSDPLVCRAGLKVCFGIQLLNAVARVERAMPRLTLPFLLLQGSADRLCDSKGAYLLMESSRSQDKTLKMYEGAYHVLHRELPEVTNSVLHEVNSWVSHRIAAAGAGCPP
# Procedure: (§1) ABPP experiments were performed using membrane preparations obtained from mouse brains as described earlier.
# FAAH, ABHDs, MAGL and COX-2 activity assays were performed using cell homogenates, human recombinant enzymes and mouse, rat and pig brain homogenates as previously described.
# [6] = test system: major serine hydrolases; test: Activity-based protein profiling (ABPP) in mouse brain membranes; assay type: biochemical; settings: membranes from mouse brain
# Procedure: as §1
# [7] = test system: CB1 receptors; test: Functional CB1 receptors in brain after repeated treatment; assay type: in vivo, mouse; settings: 7 days of daily treatment
# Procedure: CB1 and CB2 receptor binding assays [^35S]GTPγS assays were performed as previously described. WOBE437 was profiled in more detail in an extended CNS adverse drug reaction screening panel (CEREP).
smiles,measurement,setting,value
"CCCCCCC/C=C/C=C/C(=O)NCCc1ccc(OC)c(OC)c1 [WOBE437, (2E,4E)-N-[2-(3,4-Dimethoxyphenyl)ethyl]dodeca-2,4-dienamide]",tetrad response,[1]; 3 mg/kg,ineffective
same,tetrad response,[1]; 10 mg/kg,full tetrad response
same,tetrad in CB1 receptor-deficient littermates,[1]; C57BL6/N background,completely absent
same,tetrad effects after pre-treatment with rimonabant (SR1),"[1]; hypothermia, catalepsy and antinociception",completely blocked by SR1
same,"hypothermia, catalepsy and antinociception compared to (R)-WIN55,212-2",[1]; i.p.,significantly less pronounced
same,lowest dose to elicit a complete tetrad,"[1]; i.p., BALB/c mice",10 mg/kg
same,brain level,"[2]; 10 mg/kg p.o., 20 min, C57BL6/J",24.7 ± 25.3 pmol/g
same,apparent volume of distribution (Vd) at Cmax,[2]; 50 mg/kg p.o.,80.4 L/kg
same,apparent volume of distribution (Vd) at the steady state,[2]; 50 mg/kg p.o.,609 L/kg
same,brain concentration 3 h after administration,[2]; 50 mg/kg p.o.,18 pmol/g
same,drop of hepatic concentration between 20 and 40 min,[2]; 50 mg/kg p.o.,4 factor
same,estimated concentration in brain,[2]; 50 mg/kg p.o.,399.7 ± 154.7 nM
same,time until cleared from the brain,[2]; 50 mg/kg p.o.,approximately 180 min
same,brain levels after p.o. as compared to i.p. (times lower),[2]; 50 mg/kg p.o. vs 10 mg/kg i.p.,approximately 10 times
same,highest concentration in kidney,"[2]; 50 mg/kg p.o., 20 min",2277 ± 916 pmol/g
same,highest concentration in liver,"[2]; 50 mg/kg p.o., 20 min",4720 ± 3273 pmol/g
same,highest concentration in spleen,"[2]; 50 mg/kg p.o., 20 min",1030 ± 339 pmol/g
same,brain level,"[2]; 50 mg/kg p.o., 20 min, C57BL6/J",534.5 ± 109.9 pmol/g
same,hepatic concentration,"[2]; 50 mg/kg p.o., 40 min",1080 pmol/g
same,Cmax,[2]; 50 mg/kg p.o.,~2000 nM
same,Tmax,"[2]; male, C57BL6/J, mouse, brain, plasma, po, 50 mg/kg, 50 mg/kg p.o., read-out: tmax in brain and plasma",≤ 20 min
same,Tmax,"[2]; male, C57BL6/J, mouse, kidney, liver, spleen, po, 50 mg/kg, 50 mg/kg p.o., read-out: tmax in kidney, liver and spleen (converted)",20 min
same,Cmax,"[2]; male, C57BL6/J, mouse, plasma, po, 50 mg/kg, 50 mg/kg p.o.",1930 ± 564 nM
same,concentration at 20 min,"[2]; male, mouse, plasma, 10 mg/kg p.o., 20 min, C57BL6/J",47.3 ± 32.5 nM
same,concentration at 20 min,"[2]; male, mouse, plasma, 50 mg/kg p.o., 20 min, C57BL6/J",1730 ± 703 nM
same,clearance,"[3]; 1 μM, preliminary",0.657 mL/min/kg
same,bioavailability at 1 μM,"[3]; human, humans, from microsomal clearance, read-out: estimated maximal bioavailability",4%
same,"antiallodynia and antiinflammatory effects after rimonabant, SR144528 or GW9662 pre-treatment","[4]; 10 mg/kg i.p., 3 days",fully abolished
same,reduction of inflammation (edema),"[4]; 10 mg/kg i.p., 3 days",58%
same,reduction in allodynia,"[4]; 10 mg/kg i.p., 3 days, as compared to contralateral knee",52%
same,knee diameter,"[4]; 10 mg/kg i.p., 3 days, vehicle 6.5±0.9, contralateral 4.5±0.3",5.3±0.4 mm
same,allodynia after single dose,"[4]; 10 mg/kg i.p., single dose",significantly decrease allodynia
same,antiallodynia effect after SR144528 (3 mg/kg) or capsazepine (5 mg/kg) pre-treatment,"[4]; 10 mg/kg i.p., single dose",completely prevented
same,antiallodynia effect after rimonabant or GW9662 pre-treatment,"[4]; 10 mg/kg i.p., single dose",did not block
same,allodynia and edema,[4]; 2.5 and 5.0 mg/kg i.p.,did not show any significant changes
same,inhibition of MAGL,[5],did not inhibit
same,inhibition of major serine hydrolases (ABPP),[6],does not inhibit any of the major serine hydrolases
same,number of functional CB1 receptors in the brain,[7],did not affect
